Experimental data as given in patent US20240067662A1, “KRAS INHIBITORS” (Bristol-Myers Squibb Company, priority 2022, published 2024).

Biological target: GMPPNP-loaded KRAS G12C (Homo sapiens, UniProt P01116, G12C)
Assay: KRAS G12C RAF Disruption Assay (HTRF)
Format: biochemical
Settings: recombinant GMPPNP-loaded KRAS G12C (5 nM), 20 min with compound; GST-RAF1 RBD (9 nM); HTRF signal; read-out: KRASG12C RAF Disruption Assay (IC50)
Summary of the method: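 The read-out is an HTRF 520/495 emission ratio, with IC50 taken from dose-response curves. Compound was first incubated for 20 min at room temperature with active-state KRAS G12C (GMPPNP, 5 nM) in Tris pH 7.5/NaCl/MgCl2/DTT/BSA. RAF1 RBD-GST (9 nM, 20 min) and SA-Tb (0.25 nM, 3 h) were added in turn.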

Sequence of GMPPNP-loaded KRAS G12C (P01116 1-188 isoform P01116-2 G12C): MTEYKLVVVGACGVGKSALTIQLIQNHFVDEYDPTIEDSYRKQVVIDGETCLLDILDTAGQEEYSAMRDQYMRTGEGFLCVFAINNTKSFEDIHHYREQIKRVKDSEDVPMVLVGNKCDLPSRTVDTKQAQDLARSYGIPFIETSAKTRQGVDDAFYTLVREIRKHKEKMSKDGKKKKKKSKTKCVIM

Compound	IC50
CN(c1nc(OC[C@@]23CCCN2C[C@H](F)C3)nc2c(F)c(-c3cccc4cccc(C#N)c34)ncc12)[C@@H]1CCN(C(=O)/C(F)=C/c2ccccn2)C1 [Compound 113, 8-(8-fluoro-4-(((R)-1-((Z)-2-fluoro-3-(pyridin-2-yl)acryloyl)pyrrolidin-3-yl)(methyl)amino)-2-(((2R, 7aS)-2-fluorotetrahydro-1H-pyrrolizin-7a(5H)-yl)methoxy)pyrido[4,3-d]pyrimidin-7-yl)-1-naphthonitrile]	156 nM
N#CC[C@H]1CN(c2nc(OC[C@@]34CCCN3C[C@H](F)C4)nc3c(F)c(-c4cc(O)ccc4C(F)(F)F)ncc23)CCN1C(=O)/C(F)=C/c1nccs1 [Compound 95, 2-((S)-4-(8-fluoro-2-(((2R, 7aS)-2-fluorotetrahydro-1H-pyrrolizin-7a(5H)-yl)methoxy)-7-(5-hydroxy-2-(trifluoromethyl)phenyl)pyrido[4,3-d]pyrimidin-4-yl)-1-((Z)-2-fluoro-3-(thiazol-2-yl)acryloyl)piperazin-2-yl)acetonitrile]	14 nM
Cn1ncc2cccc(-c3ncc4c(N5CCN(C(=O)/C(F)=C/c6ccccn6)CC5)nc(OC[C@@]56CCCN5C[C@H](F)C6)nc4c3F)c21 [Example 38, (Z)-2-fluoro-1-(4-(8-fluoro-2-(((2R, 7aS)-2-fluorotetrahydro-1H-pyrrolizin-7a(5H)-yl)methoxy)-7-(1-methyl-1H-indazol-7-yl)pyrido[4,3-d]pyrimidin-4-yl)piperazin-1-yl)-3-(pyridin-2-yl)prop-2-en-1-one]	4700 nM
C#Cc1c(F)ccc2cc(O)cc(-c3ncc4c(N5CCN(C(=O)/C(F)=C/c6ccccn6)CC5)nc(OC[C@]56CCC[C@H]5N(C)CCC6)nc4c3F)c12 [Example 59, (Z)-1-(4-(7-(8-ethynyl-7-fluoro-3-hydroxynaphthalen-1-yl)-8-fluoro-2-(((4aS, 7aR)-1-methyloctahydro-4aH-cyclopenta[b]pyridin-4a-yl)methoxy)pyrido[4,3-d]pyrimidin-4-yl)piperazin-1-yl)-2-fluoro-3-(pyridin-2-yl)prop-2-en-1-one]	2 nM
C#Cc1c(F)ccc2cc(O)cc(-c3ncc4c(N5CCN(C(=O)/C(F)=C/c6cnccn6)CC5)nc(OC[C@@]56CCCN5C[C@H](F)C6)nc4c3F)c12 [Example 56, (Z)-1-(4-(7-(8-ethynyl-7-fluoro-3-hydroxynaphthalen-1-yl)-8-fluoro-2-(((2R, 7aS)-2-fluorotetrahydro-1H-pyrrolizin-7a(5H)-yl)methoxy)pyrido[4,3-d]pyrimidin-4-yl)piperazin-1-yl)-2-fluoro-3-(pyrazin-2-yl)prop-2-en-1-one]	6 nM
C#Cc1c(F)ccc2cc(O)cc(-c3ncc4c(N5CCN(C(=O)/C(F)=C/c6ccccn6)CC5)nc(OC[C@@]56CCCN5C[C@H](F)C6)nc4c3F)c12 [Example 27, (Z)-1-(4-(7-(8-ethynyl-7-fluoro-3-hydroxynaphthalen-1-yl)-8-fluoro-2-(((2R, 7aS)-2-fluorotetrahydro-1H-pyrrolizin-7a(5H)-yl)methoxy)pyrido[4,3-d]pyrimidin-4-yl)piperazin-1-yl)-2-fluoro-3-(pyridin-2-yl)prop-2-en-1-one]	3 nM
C#Cc1c(F)c(F)cc2cccc(-c3ncc4c(N5CCN(C(=O)/C(F)=C/c6ncccn6)CC5)nc(OC[C@@]56CCCN5C[C@H](F)C6)nc4c3F)c12 [Compound 98, (Z)-1-(4-(7-(8-ethynyl-6,7-difluoronaphthalen-1-yl)-8-fluoro-2-(((2R, 7aS)-2-fluorotetrahydro-IH-pyrrolizin-7a(5H)-yl)methoxy)pyrido[4,3-d]pyrimidin-4-yl)piperazin-1-yl)-2-fluoro-3-(pyrimidin-2-yl)prop-2-en-1-one]	91 nM
N#CC[C@H]1CN(c2nc(OC[C@@]34CCCN3C[C@H](F)C4)nc3c(F)c(-c4ccccc4C4CC4)ncc23)CCN1C(=O)/C(F)=C/c1nccs1 [Compound 80, 2-((2S)-4-(7-(2-cyclopropylphenyl)-8-fluoro-2-(((2R, 7aS)-2-fluorotetrahydro-1H-pyrrolizin-7a(5H)-yl)methoxy)pyrido[4,3-d]pyrimidin-4-yl)-1-((Z)-2-fluoro-3-(thiazol-2-yl)acryloyl)piperazin-2-yl)acetonitrile]	30 nM
C#Cc1cccc2cccc(-c3ncc4c(N5CCC6(CCN6C(=O)/C(F)=C/c6ccccn6)C5)nc(OC[C@@]56CCCN5C[C@H](F)C6)nc4c3F)c12 (single isomer, unassigned) [Compound 102]	87 nM
N#CC[C@H]1CN(c2nc(OC[C@@]34CCCN3C[C@H](F)C4)nc3c(F)c(-c4cc(F)ccc4C(F)F)ncc23)CCN1C(=O)/C(F)=C/c1ccccn1 [Example 42, 2-((S)-4-(7-(2-(difluoromethyl)-5-fluorophenyl)-8-fluoro-2-(((2R, 7aS)-2-fluorotetrahydro-1H-pyrrolizin-7a(5H)-yl)methoxy)pyrido[4,3-d]pyrimidin-4-yl)-1-((Z)-2-fluoro-3-(pyridin-2-yl)acryloyl)piperazin-2-yl)acetonitrile]	760 nM
C#Cc1cccc2cccc(-c3ncc4c(N5CCN(C(=O)/C(F)=C/c6cccnn6)CC5)nc(OC[C@@]56CCCN5C[C@H](F)C6)nc4c3F)c12 [Compound 127, (Z)-1-(4-(7-(8-ethynylnaphthalen-1-yl)-8-fluoro-2-(((2R, 7aS)-2-fluorotetrahydro-1H-pyrrolizin-7a(5H)-yl)methoxy)pyrido[4,3-d]pyrimidin-4-yl)piperazin-1-yl)-2-fluoro-3-(pyridazin-3-yl)prop-2-en-1-one]	10 nM

Second part, the compound after the results:

IC50	Compound
5000 nM	C#Cc1cccc2cccc(-c3ncc4c(N5CC6(CCN(C(=O)/C(F)=C/c7ccccn7)CC6)C5)nc(OC[C@@]56CCCN5C[C@H](F)C6)nc4c3F)c12 [Compound 91, (Z)-1-(2-(7-(8-ethynylnaphthalen-1-yl)-8-fluoro-2-(((2R, 7aS)-2-fluorotetrahydro-1H-pyrrolizin-7a(5H)-yl)methoxy)pyrido[4,3-d]pyrimidin-4-yl)-2,7-diazaspiro[3.5]nonan-7-yl)-2-fluoro-3-(pyridin-2-yl)prop-2-en-1-one]
12000 nM	C#Cc1cccc2cccc(-c3ncc4c(N5C[C@H]6CN(C(=O)/C(F)=C/c7ncccn7)C[C@H]6C5)nc(OC[C@@]56CCCN5C[C@H](F)C6)nc4c3F)c12 [Compound 101, (Z)-1-((3aR, 6aS)-5-(7-(8-ethynylnaphthalen-1-yl)-8-fluoro-2-(((2R, 7aS)-2-fluorotetrahydro-1H-pyrrolizin-7a(5H)-yl)methoxy)pyrido[4,3-d]pyrimidin-4-yl)hexahydropyrrolo[3,4-c]pyrrol-2(1H)-yl)-2-fluoro-3-(pyrimidin-2-yl)prop-2-en-1-one]
1000 nM	C#Cc1cccc2c(F)ccc(-c3ncc4c(N5CCN(C(=O)/C(F)=C/c6ncccn6)CC5)nc(OC[C@@]56CCCN5C[C@H](F)C6)nc4c3F)c12 [Compound 88, (Z)-1-(4-(7-(8-ethynyl-4-fluoronaphthalen-1-yl)-8-fluoro-2-(((2R, 7aS)-2-fluorotetrahydro-1H-pyrrolizin-7a(5H)-yl)methoxy)pyrido[4,3-d]pyrimidin-4-yl)piperazin-1-yl)-2-fluoro-3-(pyrimidin-2-yl)prop-2-en-1-one]
32 nM	C#Cc1c(F)ccc2cc(O)cc(-c3ncc4c(N5C[C@H]6CC[C@@H](C5)N6C(=O)/C(F)=C/c5ccccn5)nc(OC[C@@]56CCCN5C[C@H](F)C6)nc4c3F)c12 [Compound 2, (Z)-1-((1R, 5S)-3-(7-(8-ethynyl-7-fluoro-3-hydroxynaphthalen-1-yl)-8-fluoro-2-(((2R, 7aS)-2-fluorotetrahydro-1H-pyrrolizin-7a(5H)-yl)methoxy)pyrido[4,3-d]pyrimidin-4-yl)-3,8-diazabicyclo[3.2.1]octan-8-yl)-2-fluoro-3-(pyridin-2-yl)prop-2-en-1-one]
180 nM	C#Cc1cccc2cccc(-c3nc(OC)c4c(N5CCN(C(=O)/C(F)=C/c6nccs6)CC5)nc(OC[C@@]56CCCN5C[C@H](F)C6)nc4c3F)c12 [Compound 110, (Z)-1-(4-(7-(8-ethynylnaphthalen-1-yl)-8-fluoro-2-(((2R, 7aS)-2-fluorotetrahydro-1H-pyrrolizin-7a(5H)-yl)methoxy)-5-methoxypyrido[4,3-d]pyrimidin-4-yl)piperazin-1-yl)-2-fluoro-3-(thiazol-2-yl)prop-2-en-1-one]
200 nM	C#Cc1cccc2cccc(-c3ncc4c(N(C)[C@H]5CN(C(=O)/C(F)=C/c6nccs6)C[C@H]5F)nc(OC[C@@]56CCCN5C[C@H](F)C6)nc4c3F)c12 [Compound 129, (Z)-1-((3S,4R)-3-((7-(8-ethynylnaphthalen-1-yl)-8-fluoro-2-(((2R, 7aS)-2-fluorotetrahydro-1H-pyrrolizin-7a(5H)-yl)methoxy)pyrido[4,3-d]pyrimidin-4-yl)(methyl)amino)-4-fluoropyrrolidin-1-yl)-2-fluoro-3-(thiazol-2-yl)prop-2-en-1-one]
110 nM	C#Cc1cccc2cccc(-c3ncc4c(N(C)C5CCN(C(=O)/C(F)=C/c6ccccn6)C5C)nc(OC[C@@]56CCCN5C[C@H](F)C6)nc4c3F)c12 (single isomer, unassigned) [Example 74 trans isomer 2]
970 nM	N#Cc1cccc2[nH]cc(-c3ncc4c(N5CCN(C(=O)/C(F)=C/c6nccs6)CC5)nc(OC[C@@]56CCCN5C[C@H](F)C6)nc4c3F)c12 [Compound 134, 3-(8-fluoro-4-(4-((Z)-2-fluoro-3-(thiazol-2-yl)acryloyl)piperazin-1-yl)-2-(((2R, 7aS)-2-fluorotetrahydro-1H-pyrrolizin-7a(5H)-yl)methoxy)pyrido[4,3-d]pyrimidin-7-yl)-1H-indole-4-carbonitrile]
